Data taken from patent publication US20230085307A1, “PYRIDAZINONE COMPOUND AND HERBICIDE” (NISSAN CHEMICAL CORPORATION, priority 2019, published 2023).

Assays:
barnyard grass [1] = assay: Test Example 3: herbicidal effect by foliage application, Wagner pot (Table 18, symbol H); type: in vivo, barnyard grass (Echinochloa crus-galli); settings: amount of applied herbicide 320 g/ha
How it was run: (§1)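 Plants were sown in alluvial soil held under 0.1–0.5 cm standing water and grown 14 days in a greenhouse at 25–30 °C. An emulsifiable formulation, water-diluted to the set dose, was then sprayed onto the foliage, and effects were scored three weeks later using previously defined criteria.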

Chinese sprangletop = assay: Test Example 3: herbicidal effect by foliage application, Wagner pot (Table 18, symbol D); type: in vivo, chinese sprangletop (Leptochloa chinensis); settings: amount of applied herbicide 320 g/ha
How it was run: as §1

rice flat sedge = assay: Test Example 3: herbicidal effect by foliage application, Wagner pot (Table 18, symbol E); type: in vivo, rice flat sedge (Cyperus iria); settings: amount of applied herbicide 320 g/ha
How it was run: as §1

southern crabgrass [2] = assay: Test Example 4: herbicidal effect by soil treatment (Table 19, symbol F); type: in vivo, southern crabgrass (Digitaria ciliaris); settings: amount of applied herbicide 320 g/ha
How it was run: (§2)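 Three weeks of greenhouse growth at 25° C. to 30° C. followed a uniform surface spray of water-diluted emulsion at a predetermined herbicide amount. Seeds had been sown beforehand under about 1.5 cm of sterilized diluvial soil. Grading followed criteria set out in an earlier test.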

green foxtail [3] = assay: Test Example 4: herbicidal effect by soil treatment (Table 19, symbol G); type: in vivo, green foxtail (Setaria viridis); settings: amount of applied herbicide 320 g/ha
How it was run: as §2

barnyard grass [4] = assay: Test Example 4: herbicidal effect by soil treatment (Table 19, symbol H); type: in vivo, barnyard grass (Echinochloa crus-galli); settings: amount of applied herbicide 320 g/ha
How it was run: as §2

wild oat [5] = assay: Test Example 4: herbicidal effect by soil treatment (Table 19, symbol I); type: in vivo, wild oat (Avena fatua); settings: amount of applied herbicide 320 g/ha
How it was run: as §2

blackgrass [6] = assay: Test Example 4: herbicidal effect by soil treatment (Table 19, symbol J); type: in vivo, blackgrass (Alopecurus myosuroides); settings: amount of applied herbicide 320 g/ha
How it was run: as §2

Italian ryegrass [7] = assay: Test Example 4: herbicidal effect by soil treatment (Table 19, symbol K); type: in vivo, Italian ryegrass (Lolium multiflorum); settings: amount of applied herbicide 320 g/ha
How it was run: as §2

windgrass [8] = assay: Test Example 4: herbicidal effect by soil treatment (Table 19, symbol L); type: in vivo, windgrass (Apera spica-venti); settings: amount of applied herbicide 320 g/ha
How it was run: as §2

velvetleaf [9] = assay: Test Example 4: herbicidal effect by soil treatment (Table 19, symbol M); type: in vivo, velvetleaf (Abutilon theophrasti); settings: amount of applied herbicide 320 g/ha
How it was run: as §2

redroot pigweed [10] = assay: Test Example 4: herbicidal effect by soil treatment (Table 19, symbol N); type: in vivo, redroot pigweed (Amaranthus retroflexus); settings: amount of applied herbicide 320 g/ha
How it was run: as §2

lambsquarters [11] = assay: Test Example 4: herbicidal effect by soil treatment (Table 19, symbol O); type: in vivo, lambsquarters (Chenopodium album); settings: amount of applied herbicide 320 g/ha
How it was run: as §2

false cleavers = assay: Test Example 4: herbicidal effect by soil treatment (Table 19, symbol Q); type: in vivo, false cleavers (Galium spurium); settings: amount of applied herbicide 320 g/ha
How it was run: as §2

southern crabgrass [12] = assay: Test Example 5: herbicidal effect by foliage application, plastic box (Table 20, symbol F); type: in vivo, southern crabgrass (Digitaria ciliaris); settings: foliage application, 320 g/ha
How it was run: (§3)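 Plants sown in sterilized diluvial soil and grown 14 days in a greenhouse at 25° C to 30° C, then sprayed on the foliage with the compound's emulsion diluted in water to a predetermined herbicide amount. Injury to weeds and crops scored three weeks after application on a visual rating scale.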

green foxtail [13] = assay: Test Example 5: herbicidal effect by foliage application, plastic box (Table 20, symbol G); type: in vivo, green foxtail (Setaria viridis); settings: foliage application, 320 g/ha
How it was run: as §3

barnyard grass [14] = assay: Test Example 5: herbicidal effect by foliage application, plastic box (Table 20, symbol H); type: in vivo, barnyard grass (Echinochloa crus-galli); settings: foliage application, 320 g/ha
How it was run: as §3

wild oat [15] = assay: Test Example 5: herbicidal effect by foliage application, plastic box (Table 20, symbol I); type: in vivo, wild oat (Avena fatua); settings: foliage application, 320 g/ha
How it was run: as §3

blackgrass [16] = assay: Test Example 5: herbicidal effect by foliage application, plastic box (Table 20, symbol J); type: in vivo, blackgrass (Alopecurus myosuroides); settings: foliage application, 320 g/ha
How it was run: as §3

Italian ryegrass [17] = assay: Test Example 5: herbicidal effect by foliage application, plastic box (Table 20, symbol K); type: in vivo, Italian ryegrass (Lolium multiflorum); settings: foliage application, 320 g/ha
How it was run: as §3

windgrass [18] = assay: Test Example 5: herbicidal effect by foliage application, plastic box (Table 20, symbol L); type: in vivo, windgrass (Apera spica-venti); settings: foliage application, 320 g/ha
How it was run: as §3

velvetleaf [19] = assay: Test Example 5: herbicidal effect by foliage application, plastic box (Table 20, symbol M); type: in vivo, velvetleaf (Abutilon theophrasti); settings: foliage application, 320 g/ha
How it was run: as §3

redroot pigweed [20] = assay: Test Example 5: herbicidal effect by foliage application, plastic box (Table 20, symbol N); type: in vivo, redroot pigweed (Amaranthus retroflexus); settings: foliage application, 320 g/ha
How it was run: as §3

lambsquarters [21] = assay: Test Example 5: herbicidal effect by foliage application, plastic box (Table 20, symbol O); type: in vivo, lambsquarters (Chenopodium album); settings: foliage application, 320 g/ha
How it was run: as §3

chickweed [22] = assay: Test Example 5: herbicidal effect by foliage application, plastic box (Table 20, symbol P); type: in vivo, common chickweed (Stellaria media); settings: foliage application, 320 g/ha
How it was run: as §3

persian speedwell [23] = assay: Test Example 5: herbicidal effect by foliage application, plastic box (Table 20, symbol R); type: in vivo, Persian speedwell (Veronica persica); settings: foliage application, 320 g/ha
How it was run: as §3

chickweed [24] = assay: Test Example 4: herbicidal effect by soil treatment (Table 19, symbol P); type: in vivo, common chickweed (Stellaria media); settings: amount of applied herbicide 320 g/ha
How it was run: as §2

persian speedwell [25] = assay: Test Example 4: herbicidal effect by soil treatment (Table 19, symbol R); type: in vivo, Persian speedwell (Veronica persica); settings: amount of applied herbicide 320 g/ha
How it was run: as §2

[26] = evaluated 3 weeks after application

CSCCSc1ccc(-c2sc3ccc(F)cc3c2-c2c(O)c(C)nn(C)c2=O)cc1 [2-421]
herbicidal effect on H: barnyard grass (barnyard grass [1]): 5 (Herbicidal rate of 90% or more (almost completely withered))
herbicidal effect on D: Chinese sprangletop (Chinese sprangletop): 2 (Herbicidal rate of 20% or more and less than 40%)
herbicidal effect on E: rice flat sedge (rice flat sedge): 5 (Herbicidal rate of 90% or more (almost completely withered))
herbicidal effect, F: southern crabgrass (southern crabgrass [2]): 2 (Herbicidal rate of 20% or more and less than 40%)
herbicidal effect, G: green foxtail (green foxtail [3]): 3 (Herbicidal rate of 40% or more and less than 70%)
herbicidal effect, H: barnyard grass (barnyard grass [4]): 1 (Herbicidal rate of 5% or more and less than 20%)
herbicidal effect, I: wild oat (wild oat [5]): 0 (Herbicidal rate of 5% or less (almost no effect))
herbicidal effect, J: blackgrass (blackgrass [6]): 0 (Herbicidal rate of 5% or less (almost no effect))
herbicidal effect, K: Italian ryegrass (Italian ryegrass [7]): 0 (Herbicidal rate of 5% or less (almost no effect))
herbicidal effect, L: windgrass (windgrass [8]): 0 (Herbicidal rate of 5% or less (almost no effect))
herbicidal effect, M: velvetleaf (velvetleaf [9]): 2 (Herbicidal rate of 20% or more and less than 40%)
herbicidal effect, N: redroot pigweed (redroot pigweed [10]): 5 (Herbicidal rate of 90% or more (almost completely withered))
herbicidal effect, O: lambsquarters (lambsquarters [11]): 1 (Herbicidal rate of 5% or more and less than 20%)
herbicidal effect, Q: false cleavers (false cleavers): 0 (Herbicidal rate of 5% or less (almost no effect))
F: southern crabgrass, herbicidal effect grade (southern crabgrass [12]; three weeks after application): 5 (Herbicidal rate of 90% or more (almost completely withered))
G: green foxtail, herbicidal effect grade (green foxtail [13]; three weeks after application): 5 (Herbicidal rate of 90% or more (almost completely withered))
H: barnyard grass, herbicidal effect grade (barnyard grass [14]; three weeks after application): 5 (Herbicidal rate of 90% or more (almost completely withered))
I: wild oat, herbicidal effect grade (wild oat [15]; three weeks after application): 5 (Herbicidal rate of 90% or more (almost completely withered))
J: blackgrass, herbicidal effect grade (blackgrass [16]; three weeks after application): 4 (Herbicidal rate of 70% or more and less than 90%)
K: Italian ryegrass, herbicidal effect grade (Italian ryegrass [17]; three weeks after application): 3 (Herbicidal rate of 40% or more and less than 70%)
L: windgrass, herbicidal effect grade (windgrass [18]; three weeks after application): 5 (Herbicidal rate of 90% or more (almost completely withered))
M: velvetleaf, herbicidal effect grade (velvetleaf [19]; three weeks after application): 3 (Herbicidal rate of 40% or more and less than 70%)
N: redroot pigweed, herbicidal effect grade (redroot pigweed [20]; three weeks after application): 5 (Herbicidal rate of 90% or more (almost completely withered))
O: lambsquarters, herbicidal effect grade (lambsquarters [21]; three weeks after application): 4 (Herbicidal rate of 70% or more and less than 90%)
P: chickweed, herbicidal effect grade (chickweed [22]; three weeks after application): 5 (Herbicidal rate of 90% or more (almost completely withered))
R: persian speedwell, herbicidal effect grade (persian speedwell [23]; three weeks after application): 5 (Herbicidal rate of 90% or more (almost completely withered))

Cc1ccc2oc(-c3ccc(OC(F)F)cc3)c(-c3c(O)c(C)nn(C)c3=O)c2c1 [9-053]
Herbicidal effect on H (barnyard grass), foliage application (barnyard grass [1]): 4 (Herbicidal rate of 70% or more and less than 90%)
Herbicidal effect on D (Chinese sprangletop), foliage application (Chinese sprangletop): 0 (Herbicidal rate of 5% or less (almost no effect))
Herbicidal effect on E (rice flat sedge), foliage application (rice flat sedge): 4 (Herbicidal rate of 70% or more and less than 90%)
F: southern crabgrass, herbicidal effect grade (southern crabgrass [2]): 2 (Herbicidal rate of 20% or more and less than 40%)
G: green foxtail, herbicidal effect grade (green foxtail [3]): 4 (Herbicidal rate of 70% or more and less than 90%)
H: barnyard grass, herbicidal effect grade (barnyard grass [4]): 4 (Herbicidal rate of 70% or more and less than 90%)
I: wild oat, herbicidal effect grade (wild oat [5]): 0 (Herbicidal rate of 5% or less (almost no effect))
K: Italian ryegrass, herbicidal effect grade (Italian ryegrass [7]): 5 (Herbicidal rate of 90% or more (almost completely withered))
L: windgrass, herbicidal effect grade (windgrass [8]): 0 (Herbicidal rate of 5% or less (almost no effect))
M: velvetleaf, herbicidal effect grade (velvetleaf [9]): 4 (Herbicidal rate of 70% or more and less than 90%)
N: redroot pigweed, herbicidal effect grade (redroot pigweed [10]): 5 (Herbicidal rate of 90% or more (almost completely withered))
O: lambsquarters, herbicidal effect grade (lambsquarters [11]): 5 (Herbicidal rate of 90% or more (almost completely withered))
P: chickweed, herbicidal effect grade (chickweed [24]): 3 (Herbicidal rate of 40% or more and less than 70%)
Q: false cleavers, herbicidal effect grade (false cleavers): 0 (Herbicidal rate of 5% or less (almost no effect))
R: persian speedwell, herbicidal effect grade (persian speedwell [25]): 4 (Herbicidal rate of 70% or more and less than 90%)
F (southern crabgrass) herbicidal effect grade (southern crabgrass [12]; [26]): 3 (Herbicidal rate of 40% or more and less than 70%)
G (green foxtail) herbicidal effect grade (green foxtail [13]; [26]): 4 (Herbicidal rate of 70% or more and less than 90%)
H (barnyard grass) herbicidal effect grade (barnyard grass [14]; [26]): 3 (Herbicidal rate of 40% or more and less than 70%)
I (wild oat) herbicidal effect grade (wild oat [15]; [26]): 0 (Herbicidal rate of 5% or less (almost no effect))
J (blackgrass) herbicidal effect grade (blackgrass [16]; [26]): 4 (Herbicidal rate of 70% or more and less than 90%)
K (Italian ryegrass) herbicidal effect grade (Italian ryegrass [17]; [26]): 5 (Herbicidal rate of 90% or more (almost completely withered))
L (windgrass) herbicidal effect grade (windgrass [18]; [26]): 3 (Herbicidal rate of 40% or more and less than 70%)
M (velvetleaf) herbicidal effect grade (velvetleaf [19]; [26]): 5 (Herbicidal rate of 90% or more (almost completely withered))
N (redroot pigweed) herbicidal effect grade (redroot pigweed [20]; [26]): 5 (Herbicidal rate of 90% or more (almost completely withered))
O (lambsquarters) herbicidal effect grade (lambsquarters [21]; [26]): 5 (Herbicidal rate of 90% or more (almost completely withered))
P (chickweed) herbicidal effect grade (chickweed [22]; [26]): 5 (Herbicidal rate of 90% or more (almost completely withered))
R (persian speedwell) herbicidal effect grade (persian speedwell [23]; [26]): 5 (Herbicidal rate of 90% or more (almost completely withered))
